In one test the test system is T1, PAI-1 R118A.
T1 construct: made in house
As to the kind of experiment: chromogenic screening assay with PAI-1 mutant R118A. Type of test: biochemical. As for the experimental part:
(§1) Compounds from our local collection BioCIS and from the Prestwick compound library (Prestwick chemicals, Illkirch, FR), a collection containing only FDA approved drugs (around 4000 compounds in total) were tested in a chromogenic assay measuring the inhibition rate of tPA-catalyzed spectrozyme® tPA hydrolysis in the presence of PAI-1. Compounds (20 μL, final concentration 50 μM, 1% DMSO) were dispensed in a 96 well half area Greiner plate. A mixture containing 20 μL of PAI-1 (final concentration 20 nM) and 80 μL of Spectrozyme-tPA (final concentration 400 μM) was then added, and the mixture pre-incubated for 45 minutes at 37 °C. At the end of pre-incubation time, 90 μL of the mixture were added to another 96 well half area plate containing 10 μL tPA (final concentration 10 nM). The kinetic was then measured at 405 nm for 45 min at 37 °C in an Envision microplate reader. Progress curves were fitted using the pseudo first order equation to determine the apparent rate constant k.
(§2) Mutants were constructed as previously described. […] The effect of annonacinone was measured at 50 μM for each mutant in our chromogenic screening assay. […] For each mutant, the ratio between the apparent rate constants with and without 50 μM annonacinone were calculated and then compared to that of PAI-1 WT to determine the % of annonacinone activity.

The next test has as its system T2, human α1-antitrypsin.
T2 construct: purchased Sigma
As to the kind of experiment: continuous chromogenic assay: inhibition of neutrophil elastase by α1-antitrypsin. Format: biochemical. Conditions: α1-antitrypsin pre-incubated with 50 μM annonacinone 20 min 37 °C; untreated 1.2 × 10^−3. As for the experimental part: 5 μM human α1-antitrypsin (Sigma) or human antithrombin (Aclotin®, LFB) were incubated with 50 μM annonacinone (or 0.5% DMSO in reaction buffer as control) for 20 min at 37 °C. The mixtures containing α1-antitrypsin were diluted in N-Methoxysuccinyl-Ala-Ala-Pro-Val p-nitroanilide (Sigma) containing solution and substrate hydrolysis kinetic was triggered by addition of neutrophil elastase (Sigma) to a final volume of 100 μL containing 13 nM α1-antitrypsin, 130 nM annonacinone, 82 μM chromogenic substrate and 5 nM neutrophil elastase. The mixtures containing antithrombin were diluted in fondaparinux (Arixtra®, GlaxoSmithKline) and CS-11(22)-FXa (Hyphen Biomed) containing solution and substrate hydrolysis kinetic was triggered by addition of factor Xa (Stago BNL) to a final volume of 100 μL containing 51 nM antithrombin, 510 nM annonacinone, 200 μM chromogenic substrate, 5 μM fondaparinux and 2 nM factor Xa.

Test [1] deals with T3, PAI-1/vitronectin complex (Homo sapiens, UniProt P05121).
T3 construct: purchased Stago BNL (Asnières sur Seine, FR)
T3 sequence (P05121 24-402, one chain of several): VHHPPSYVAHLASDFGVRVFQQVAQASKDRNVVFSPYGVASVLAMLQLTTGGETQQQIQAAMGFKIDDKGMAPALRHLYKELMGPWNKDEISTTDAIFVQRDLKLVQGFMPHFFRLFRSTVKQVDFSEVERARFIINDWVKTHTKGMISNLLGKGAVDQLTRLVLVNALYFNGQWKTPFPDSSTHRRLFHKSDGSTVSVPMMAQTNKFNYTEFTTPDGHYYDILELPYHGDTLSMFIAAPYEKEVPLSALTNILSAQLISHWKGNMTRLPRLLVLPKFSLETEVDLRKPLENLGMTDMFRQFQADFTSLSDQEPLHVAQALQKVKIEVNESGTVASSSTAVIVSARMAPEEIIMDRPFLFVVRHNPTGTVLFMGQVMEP
As to the kind of experiment: chromogenic kinetic assay in presence of vitronectin. Type of test: biochemical. As for the experimental part: Compounds (20 μL) were dispensed in a 96 well half area Greiner plate. A mixture containing 20 μL of PAI-1 (final concentration 20 nM) and 40 μL of a chromogenic substrate (Spectrozyme-tPA, final concentration 400 μM) was then added, and the mixture pre-incubated for 20 minutes at 37 °C. 40 μL of vitronectin (final concentration 37.5 nM) was added and the mixture further pre-incubated for 20 min at 37 °C. At the end of pre-incubation time, 90 μL of the PAI-1/vitronectin/compound mixture were added to 10 μL of tPA (final concentration 10 nM) and the tPA catalysed substrate hydrolysis reaction was followed for 45 min at 405 nm. Progress curves were then fitted using the pseudo first order equation to determine the apparent rate constant k.

A further test relates to T4, tPA.
T4 construct: purchased Stago BNL (Asnières sur Seine, FR)
Briefly: tPA-catalyzed substrate hydrolysis without PAI-1 (control). Conditions: control without PAI-1. Format: biochemical, human. As for the experimental part:
as §1, with “inhibition rate of tPA-catalyzed spectrozyme® tPA hydrolysis in the presence of PAI-1.” left out, “A mixture containing 20 μL of PAI-1 (final concentration 20 nM) and 80 μL of Spectrozyme-tPA (final concentration 400 μM) was then added, and the mixture pre-incubated for 45 minutes at 37 °C.” left out

The subject of another test is T5, PAI-1.
T5 construct: purchased Stago BNL (Asnières sur Seine, FR)
As to the kind of experiment: native PAGE analysis of PAI-1 polymerization. Type of test: biochemical, human. Conditions: increasing concentrations up to 50 μM, 30 min 37 °C. As for the experimental part: PAI-1 (1 μM) was mixed with various concentration of annonacinone or DMSO 1% for 30 min at 37 °C. Samples were mixed with 1/3 volume of native gel sample buffer or LDS sample buffer. The former were subjected to BN-PAGE and the latter were fractioned by SDS-PAGE. Proteins band were visualized by silver staining.

Another test deals with T6, PAI-1 T94A.
T6 construct: made in house
As to the kind of experiment: chromogenic screening assay with PAI-1 mutant T94A. Type of test: biochemical. As for the experimental part: as §1, §2

Another test deals with FeCl3-occluded venules. Briefly: murine model of rtPA-induced thrombolysis by intravital microscopy. Type of test: in vivo, mice. As for the experimental part:
Thrombolysis was evaluated in an in vivo mouse model according to the method previously described[18] with modifications. Briefly, platelets of anesthetized mice were fluorescently labeled in vivo by injection of rhodamine 6G (3.3 mg/kg) into the retro-orbital plexus, then thrombus formation was induced by topical deposition on the mesenteric vessels of ferric chloride solution (FeCl3; 15%) in 4- to 5-week-old mice. Thrombus growth was monitored in real-time with an inverted epifluorescent microscope (x10) (Nikon Eclipse TE2000U). Within the 10 minutes after total occlusion of the vessel, the effect of annonacinone was evaluated on the efficiency of rtPA-induced thrombolysis by applying directly on the occluded vessels a thrombolytic cocktail (40 μL) composed of 40 μM rtPA (Actilyse®), 200 μM Argatroban (Arganova®) and 0.2% DMSO or 20 μM annonacinone. The incidence of the recanalization, defined as a partial or complete restoration of flow associated to a decrease of more than 50% of the initial thrombus size, and the evolution of thrombus size were determined during 1 hour.

The next test relates to T7, PAI-1 D95A.
T7 construct: made in house
Briefly: chromogenic screening assay with PAI-1 mutant D95A. Type of test: biochemical. Conditions: ratio of kapp relative to WT (100%). As for the experimental part: as §1, §2

The mark [2] stands for this setting: ratio of kapp relative to WT (100%).

Usually IC50 stands for the concentration at which inhibition is half-maximal. For the compound `CCCCCCCCCCCC[C@@H](O)[C@H]1CC[C@H]([C@H](O)CCCCC(=O)CCCCC[C@@H](O)CC2=C[C@H](C)OC2=O)O1` [Annonacinone], the “kapp Annonacinone 50 μM” value is 3,4 ± 0,3 × 10^−4 s^−1 in the test with PAI-1 R118A (DMSO 1% 6,0 ± 0,9 × 10^−3, n = 4) and 2,3 ± 0,4 × 10^−3 s^−1 in the test with PAI-1 T94A (DMSO 1% 6,6 ± 0,9 × 10^−3, n = 4). In addition, the “Annonacinone activity 50 μM (% WT)” value in the test with PAI-1 R118A (setting [2]) stood at 264 ± 40 % WT; in the test with PAI-1 T94A (setting [2]), 42 ± 6 % WT; in the test with PAI-1 D95A, 163 ± 24 % WT. Moreover, the “kapp of neutrophil elastase inhibition by α1-antitrypsin” value in the test with human α1-antitrypsin turned out to be 0.0011 s⁻¹. Moreover, in test [1] (50 μM), the “activity on PAI-1 bound to vitronectin” value was “inactive”. The “kapp, annonacinone added to PAI-1 pre-incubated with vitronectin” value in test [1] (50 μM, PAI-1 pre-incubated with VN 20 min 37 °C, DMSO 1% 1.05 ± […] 10^−2) is 2.16 ± 0.17 × 10^−2 s^−1. The “kapp, annonacinone pre-incubated with PAI-1 before addition of vitronectin” value in test [1] (50 μM, pre-incubation with PAI-1 20 min 37 °C, then VN 20 min 37 °C) is on record as 2.39 ± 0.32 × 10^−3 s^−1. In addition, the concentration for half-maximal inhibition (IC50) in test [1] (annonacinone pre-incubated with PAI-1 before vitronectin) came out at 10 ± 2 µM. In addition, the “effect on tPA-catalyzed substrate hydrolysis without PAI-1” value in the test on tPA is given as “no effect”. The “effect on PAI-1 polymerization” value in the test on PAI-1 is “did not permit to show formation of PAI-1 polymers”. Also, the incidence of recanalization in the test with FeCl3-occluded venules (20 μM annonacinone applied locally with rtPA 40 μM and Argatroban 200 μM, 1 hour, DMSO 0.2% control 28%) worked out at 71%. Moreover, the “total number of vessels recanalized per group of 7 mice” value in the test on FeCl3-occluded venules (20 μM annonacinone with rtPA 40 μM and Argatroban 200 μM, 1 hour, DMSO control 2/7) was 5/7. Besides, the “decrease of thrombus size from initial size” value in the test on FeCl3-occluded venules (35 minutes of treatment, 20 μM annonacinone with rtPA and Argatroban, n = 7, DMSO 3.4 ± 8.5%) is given as 29.7 ± 7.7%.

Source of the values: publication PMC5120274, “Characterization of the Annonaceous acetogenin, annonacinone, a natural product inhibitor of plasminogen activator inhibitor-1” (Scientific Reports, 2016).
